Measurements: patent US8436037B2, “Process for the production of amides” (Syngenta Limited, priority 2005, dated 2013)

What was measured:
[1] = thermodynamic stability (DSC, solubility tests and other experiments); type: physicochemical; details: compared with modification A
Experimental: Characteristic for modification B is also the thermogram in DSC (differential scanning calorimetry, see FIG. 5). It has an endothermic peak in the range from 120° C. to 128° C. depending on purity. For example, crystal modification B in pure form has a peak temperature of 128° C. and an endothermic signal around 90 J/g. This thermogram is characteristically different from the thermogram of the modification A (see FIG. 6), which has an endothermic peak at about 112° C. and an endothermic signal of 76 J/g. The measurement was carried out on a Metier Toledo 820 DSC in a closed pan with a heating rate of 10 K/minute. The typical sample quantity is about 5 mg.

[2] = water solubility of crystal modifications; type: physicochemical; details: over relevant temperature ranges; compared with modification A

For `CC(C)C1C2CCC1c1c(NC(=O)c3cn(C)nc3C(F)F)cccc12` (stereo not drawn) [modification B, syn-3-difluoromethyl-1-methyl-1H-pyrazole-4-carboxylic acid (9-isopropyl-1,2,3,4-tetrahydro-1,4-methano-naphthalen-5-yl)-amide], the thermodynamic stability [1] was “substantially better thermodynamic stability than the modification A” and the water solubility [2] was “lower than the water solubility of modification A”.
